From US8173592B1, “Method for a programmed controlled ovarian stimulation protocol” (Zentaris IVF GmbH, priority 1999, dated 2012)
Non-standard residues stand in square brackets, D forms with d. Residues, ends and D or L forms follow the SMILES beside them. dPhe(4-Cl) = N[C@H](Cc1ccc(Cl)cc1)C(=O)O; d2Nal = N[C@H](Cc1ccc2ccccc2c1)C(=O)O; dCit = NC(=O)NCCC[C@@H](N)C(=O)O; d3Pal = N[C@H](Cc1cccnc1)C(=O)O

What was measured:
[1] = system: women undergoing controlled ovarian stimulation; experiment: Controlled ovarian stimulation (COS) cycles programmed by oral contraceptives, with Gonal-F stimulation and Cetrotide 0.25 mg daily, in patients; type: in vivo
Protocol: A total of 30 patients, 15 from each German study center was enrolled for one treatment cycle. In the pre-treatment cycle, each patient received monophasic oral contraceptive(OC) pills containing 30 μg Estradiol in combination with levonogastrel. […] Cetrotide® 0.25 mg was given daily from the evening of stimulation day (s-day) 5/morning of s-day 6 until the day before hCG administration. On the basis of the ultrasound scans performed on s-day 9/10(s-day 9/10), and a calculation of follicular growth of 2 mm per day, hCG was administered to trigger ovulation (when >2 follicle's≧18 mm) were visualized.
Safety end-points were indicated and severity of adverse events.

[2] = system: luteal regression / start of menses; conditions: 1 mg given in the luteal phase; previous use; cited from earlier work
[3] = last day of Cetrotide administration, 17 patients

SMILES: CC(=O)N[C@H](Cc1ccc2ccccc2c1)C(=O)N[C@H](Cc1ccc(Cl)cc1)C(=O)N[C@H](Cc1cccnc1)C(=O)N[C@@H](CO)C(=O)N[C@@H](Cc1ccc(O)cc1)C(=O)N[C@H](CCCNC(N)=O)C(=O)N[C@@H](CC(C)C)C(=O)N[C@@H](CCCNC(=N)N)C(=O)N1CCC[C@H]1C(=O)N[C@H](C)C(N)=O [Cetrotide, cetrorelix] (Ac-[d2Nal][dPhe(4-Cl)][d3Pal]SY[dCit]LRP[dA]-NH2)
- adverse events ([1]; 17 patients): no cases of OHSS nor adverse events
- cases of OHSS ([1]; 17 patients): no cases
- difference between predicted and actual day of OPU, average ([1]; 17 patients): 2 days
- mean number of embryos transferred ([1]; 17 patients): 2
- mean number of oocytes retrieved ([1]; 17 patients): 8.8
- patients receiving hCG who had ovum pick up and embryo transfer ([1]; 17 patients): All 17 women who received hCG had ovum pick up and embryo transfer
- pregnancy rate per attempt/cycle ([1]; 17 patients): 41%
- efficacy in OC programmed cycles ([1]; conclusion): appears to be effective
- tolerability in OC programmed cycles ([1]; conclusion): well tolerated
- mean number of follicles with diameter 15-17 mm [1, 3]: 4.9
- mean number of follicles with diameter ≦14 mm [1, 3]: 2.7
- mean number of follicles with diameter ≧18 mm [1, 3]: 2.7
- mean number of follicles ≧18 mm on s-day 9/10 ([1]; preliminary results from 17 patients, stimulation day 9/10, Cetrotide 0.25 mg daily): 2.2
- start of menses after administration (luteal regression obtained) [2]: 2 to 4 days
